These results are taken from US11931327B2, “Drug for retinal degenerative disease associated with photoreceptor degeneration” (Daiichi Sankyo Company, Limited, priority 2017, dated 2024).

For data set [1], the system named is transgenic zebrafish Tg (rho: NTR-NanoLuc, my17: DsRed2). As to the kind of experiment: animal or person. Conditions: for rod-cell regeneration induction activity compared to the DMSO control: Examples 3 and 4, TTNPB 0.3, 1, 3, 10 and 30 μM, N=4, RA and BMS493 N=8, Dunnett's test; for EC50: Danio rerio, 48 h, read-out: EC50 of rod-cell regeneration induction (Activation (% of control) 50%); for rod-cell regeneration induction activity: Example 6, various RAR agonists. From the text: First, the present inventors constructed a model for evaluating induction of rod cell regeneration. […] Transgenic zebrafish Tg (rho: NTR-NanoLuc, my17: DsRed2), in which a fluorescent protein, DsRed2, which is cardiac-tissue specifically expressed by cardiomyocyte-specific my17 promoter, can be simply detected by using dsRed2 as a marker under a fluorescence stereomicroscope. In the transgenic zebrafish, in addition to cardiac tissue specific expression of DsRed2, a reductase, i.e., nitroreductase (NTR), and a photoprotein, i.e., NanoLuc fusion protein (NTR-NanoLuc), are expressed by a rod-cell specific rho promoter, in a rod-cell specific manner. […] However, if, a prodrug, metronidazole, is added, non-toxic metronidazole is converted to a toxic radical by NTR. […] After rod cells are ablated by treatment with metronidazole, the transgenic zebrafish were washed with rearing water to remove the toxic radical. […] In the transgenic zebrafish, rod cells can be quantitatively determined by measuring the amount of luminescence derived from rod-cell-specific NanoLuc expression. After the rod cells are ablated, the transgenic zebrafish are exposed to a test compound. The activity of the test compound to induce rod-cell regeneration can be quantitatively evaluated by measuring the amount of luminescence derived from NanoLuc and specific to rod cells.
1) On the day before collection of eggs, a pair of male and female zebrafish, i.e., a transgenic fish Tg (rho: NTR-NanoLuc, my17: DsRed2) and a wild type, were placed in a tank for mating and isolated by a divider.
2) The next morning (8:00-11:00), the divider was removed to allow them to mate with each other. Fertilized eggs were collected. In the evening (16:00-18:00) of the same day, only normally developed fertilized eggs were screened and raised in a plate for growth.
3) Day 3 after fertilization, juvenile fish were transferred to rearing water, which contained 10 mM metronidazole (Sigma-Aldrich, Japan) and 1% DMSO (Wako Pure Chemical Industries Ltd.), (prepared by dissolving 60 mg of instant ocean (Napco Limited (Japan)) in 1 L of distilled water), and raised in dark conditions for 24 hours. In this manner, ablation was specifically applied to the rod cells of the juvenile fish. In contrast, non-ablated juvenile fish, which were to be used as a control, were transferred to a tank containing rearing water, which contained a 1% DMSO solution, and raised.
5) Ablated juvenile fish of 4 days after fertilization were washed well with Egg water and dispensed in wells of the assay plate containing a compound together with 100 μL of Egg water, such that 2 juvenile fish individuals were present per well.
6) After the juvenile fish were raised for 2 days, […] of Egg water was removed and ethyl 3-aminobenzoate methanesulfonate (Sigma-Aldrich Japan; 0.4 mg/mL, 10 μL) was added to euthanize the fish.
7) Nano-Glo (registered trademark) Luciferase assay Substrate (Promega Corporation) was added to Nano-Glo (registered trademark) Luciferase assay buffer (Promega Corporation) in a ratio of 1:50 and 100 μL of the resultant solution was added to each of the wells.
8) Shaking was carried out by use of BIO-Mixer (Biotech Japan Co., Ltd.) for one hour and luminescence of NanoLuc (registered trademark) was measured by use of EnVision (PerkinElmer Co., Ltd., Japan).
Individual concentration groups were compared to the DMSO control group by the Dunnett's test.

For data set [2], the target named is T1, Human RARα (Homo sapiens, UniProt P10276).
T1 sequence (P10276 1-462): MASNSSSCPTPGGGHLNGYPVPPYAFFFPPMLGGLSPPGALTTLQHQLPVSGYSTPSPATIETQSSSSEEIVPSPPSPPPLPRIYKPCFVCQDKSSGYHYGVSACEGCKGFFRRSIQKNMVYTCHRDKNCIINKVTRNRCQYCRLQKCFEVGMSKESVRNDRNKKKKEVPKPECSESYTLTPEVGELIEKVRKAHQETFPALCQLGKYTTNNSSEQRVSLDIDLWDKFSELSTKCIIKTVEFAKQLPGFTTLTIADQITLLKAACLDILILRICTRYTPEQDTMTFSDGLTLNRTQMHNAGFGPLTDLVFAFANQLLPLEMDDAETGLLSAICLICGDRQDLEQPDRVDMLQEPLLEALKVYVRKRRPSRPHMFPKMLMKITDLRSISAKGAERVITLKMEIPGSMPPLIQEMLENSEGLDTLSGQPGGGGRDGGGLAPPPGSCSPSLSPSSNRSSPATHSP
The data set can be described thus: RAR agonistic activity, luciferase reporter (3xDR5: luc) in HEK293A cells. As to conditions: concentration exhibiting luminescence of 1000% of Negative control; 24 hours exposure; N=4.
Description: (§1) RAR agonistic activity was measured in the following procedure.
(§2) 1) HEK293A cells (Invitrogen), which functionally co-express Human RARα, Human RARβ and Human RARγ, were prepared by adding Lipofectamine (registered trademark) 2000 Transfection Reagent (Thermo Fisher Scientific) to an RAR synthetic response element luciferase reporter construct (3xDR5: luc) in accordance with the method described in the manual attached to the kit.
(§3) 3) Twenty-four hours after exposure to a compound, luminescence from the cells was measured by using PICCA JEAN (registered trademark) luminescence kit (TOYO B-Net CO., LTD.) and EnVision (PerkinElmer Corporation, Japan) (N=4).
(§4) In evaluation of RAR agonistic activity, provided that the measurement value (Negative control) of luminescence from the cells with no addition of a compound was determined as 100%, the RAR agonistic activity (%) of a test substance was calculated in accordance with the following expression. The average value thereof was plotted versus the concentration of a test substance. RAR agonistic activity (%)=(measurement value of sample well÷average value of Negative control)×100

In data set [3] the target is T2, Human RARβ (Homo sapiens, UniProt P10826).
T2 sequence (P10826 1-448 isoform P10826-2): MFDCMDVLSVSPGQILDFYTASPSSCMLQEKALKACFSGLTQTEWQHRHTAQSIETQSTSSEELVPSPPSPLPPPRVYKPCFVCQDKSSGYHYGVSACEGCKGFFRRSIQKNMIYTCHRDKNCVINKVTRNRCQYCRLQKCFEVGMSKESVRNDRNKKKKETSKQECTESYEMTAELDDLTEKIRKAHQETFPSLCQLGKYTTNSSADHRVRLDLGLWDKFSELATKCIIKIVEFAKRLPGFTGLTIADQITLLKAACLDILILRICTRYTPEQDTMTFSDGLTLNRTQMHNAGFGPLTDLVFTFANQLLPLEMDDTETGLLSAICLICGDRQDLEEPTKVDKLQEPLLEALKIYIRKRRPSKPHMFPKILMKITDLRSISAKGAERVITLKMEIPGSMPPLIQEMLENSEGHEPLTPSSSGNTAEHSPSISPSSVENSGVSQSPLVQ
The data set is described as above. Conditions: concentration exhibiting luminescence of 1000% of Negative control; 24 hours exposure; N=4.
Description: as §1, §2, §3, §4

Data set [4] addresses T3, Human RARγ (Homo sapiens, UniProt P13631).
T3 sequence (P13631 1-454): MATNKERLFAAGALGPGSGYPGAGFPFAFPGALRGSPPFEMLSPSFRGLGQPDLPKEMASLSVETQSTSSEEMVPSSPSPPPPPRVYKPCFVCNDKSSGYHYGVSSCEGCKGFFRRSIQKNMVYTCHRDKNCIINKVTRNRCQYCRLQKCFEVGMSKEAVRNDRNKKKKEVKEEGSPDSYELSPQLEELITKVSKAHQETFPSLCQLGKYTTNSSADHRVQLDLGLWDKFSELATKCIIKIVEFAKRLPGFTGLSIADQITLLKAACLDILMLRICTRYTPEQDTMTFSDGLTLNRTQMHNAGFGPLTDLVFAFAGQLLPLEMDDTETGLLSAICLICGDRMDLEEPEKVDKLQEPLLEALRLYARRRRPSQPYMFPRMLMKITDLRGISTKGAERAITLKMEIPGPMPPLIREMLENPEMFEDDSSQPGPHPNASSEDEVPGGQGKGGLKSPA
Described as above. Conditions: concentration exhibiting luminescence of 500% of Negative control; 24 hours exposure; N=4.
Description: as §1, §2, §3, §4

The test system of data set [5] is pathological zebrafish 2: Tg (rho: NTR-NanoLuc, my17: DsRed2) crossed with Tg (rho: hRHO (Q344X), omp: EGFP). As to the kind of experiment: Rod-cell regeneration effect in retinitis pigmentosa model, quantitative evaluation by NanoLuc luminescence. Type of data set: in vivo. Conditions: N=8 per concentration; Dunnett's test; FIG. 7. The method, then: Pathological model zebrafish, in which rod-cell regeneration can be quantitatively evaluated, were newly prepared using zebrafish known as a retinitis pigmentosa model. The effect of compounds was quantitatively verified in accordance with the following procedure.
1) Quantitative evaluation of rod-cell regeneration was carried out by zebrafish (pathological zebrafish 2) obtained by crossing transgenic Tg (rho: NTR-NanoLuc, my17: DsRed2) and Tg (rho: hRHO (Q344X), omp: EGFP).
Fertilized eggs were collected.
A screening test was repeated 8 times (N=8) at each concentration.
2) After shaking for one hour using BIO-Mixer, the luminescence from NanoLuc (registered trademark) was measured by use of EnVision.

Data set [6] concerns transgenic zebrafish Tg (rho: NTR-NanoLuc, my17: DsRed2). The data set can be described thus: Validation: ablation of rod cells by metronidazole, luminescence derived from rod cells. Type of data set: in vivo. Conditions: 10 mM for 24 hours, day 3 after fertilization. Here is the method: Thereafter, rod-cells are gradually regenerated in the zebrafish.
Day 3 after fertilization, the transgenic zebrafish were treated with 10 mM metronidazole (Sigma-Aldrich Japan) for 24 hours and euthanized by adding ethyl 3-aminobenzoate methanesulfonate (Sigma-Aldrich Japan). Luminescence derived from rod cells was measured in accordance with the manual attached to Nano-Glo (registered trademark) Luciferase Assay System (Promega Corporation). […] The resultant transgenic ablated fish were washed with rearing water, and a toxic radical derived from metronidazole was removed. Luminescence derived from the rod cells after 24 and 48 hours was measured. As a result, it was confirmed that rod cells are gradually regenerated over 48 hours (FIG. 3).

Take “4-[(1E)-2-[5,6-dihydro-5,5-dimethyl-8-(2-phenylethynyl)-2naphthalenyl]ethenyl]benzoate [BMS493]”: the “precipitation of compound in the assay” value in data set [1] (30 μM) is listed as “precipitated”. The toxicity to fish entry in data set [1] (100 μM, cardiac arrest) was “all fish died”. Also, the “rod-cell regeneration induction activity compared to the DMSO control” value in data set [1] is “did not show rod-cell regeneration induction activity”.
For the compound `COc1ccc(-c2ccc3cc(C(=O)O)ccc3c2)cc1C12CC3CC(CC(C3)C1)C2` [Adapalene], in data set [1], the EC50 was over 1000 nM. Besides, the “Activation (% of control)” value in data set [1] (at 1000 nM (the maximum concentration evaluated), DMSO = 0%, 1 μM TTNPB = 100%) was found to be 39%. The “RARα EC1000” value in data set [2] was 12 nM. Besides, in data set [3], the “RARβ EC1000” value came out at 6.9 nM. For the same compound, the “RARγ EC500” value in data set [4] was found to be 54 nM.
`CC1=C(/C=C/C(C)=C/C=C/C(C)=C/C(=O)O)C(C)(C)CCC1` [All-trans Retinoic acid]: the “rod-cell regeneration induction activity compared to the DMSO control” value in data set [1] is recorded as “significant rod-cell regeneration induction activity in a concentration-dependent manner”.
For the compound `CC1(C)CCC(C)(C)c2cc(Cn3cccn3)c(/C=C/c3ccc(C(=O)O)cc3)cc21` [Palovarotene], the EC50 in data set [1] was found to be 1210 nM.
As to `CCOC(=O)c1ccc(C(=O)Nc2ccc3c(c2)C(C)(C)CCC3(C)C)cc1` [Tamibarotene ethyl ester], in data set [1], the EC50 worked out at 4.9 nM and the “rod-cell regeneration induction activity” value is recorded as “strong rod-cell regeneration induction activity”. In addition, the “RARα EC1000” value in data set [2] is listed as 21.8 nM. Besides, the “RARβ EC1000” value in data set [3] is on record as 514 nM. In addition, the “RARγ EC500” value in data set [4] worked out at 714 nM.
Consider `COC(=O)c1ccc(C(=O)Nc2ccc3c(c2)C(C)(C)CCC3(C)C)cc1` [Tamibarotene methyl ester], for which, in data set [1], the EC50 is 85.4 nM. In addition, the “RARα EC1000” value in data set [2] worked out at 0.91 nM. Besides, the “RARβ EC1000” value in data set [3] was found to be 29.1 nM. Further, in data set [4], the “RARγ EC500” value amounted to 72.8 nM.
Regarding `CC1(C)CCC(C)(C)c2cc(NC(=O)c3ccc(C(=O)O)cc3)ccc21` [Tamibarotene], in data set [1], the EC50 turned out to be 9.08 nM and the “rod-cell regeneration induction activity” value is “strong rod-cell regeneration induction activity”. Further, the “regeneration of rod cells in the retinitis pigmentosa model (luminescence, words)” value in data set [5] was “statistically significant regeneration of rod cells in a dose dependent manner”. The “RARβ EC1000” value in data set [3] amounted to 79 nM. The “RARγ EC500” value in data set [4] came out at 248 nM.
In the case of `CCOC(=O)c1ccc(C#Cc2ccc3c(c2)C(C)(C)CCS3)nc1` [Tazarotene], the EC50 in data set [1] came to 402 nM.
As for `CC1(C)CCSc2ccc(C#Cc3ccc(C(=O)O)cn3)cc21` [Tazarotenic acid], in data set [1], the EC50 was 786 nM. Besides, the “RARα EC1000” value in data set [2] stood at 12 nM. In data set [3], the “RARβ EC1000” value is 4.4 nM. The “RARγ EC500” value in data set [4] is reported as 48 nM.
`Cc1ncc([N+](=O)[O-])n1CCO` [metronidazole]: the “number of rod cells remaining after ablation (luminescence)” value in data set [6] is 13.5%.
